Earlier results as cited in patent publication US20220339088A1, “METHOD FOR DYEING KERATIN MATERIAL, COMPRISING THE USE OF AN ORGANIC C1-C6 ALKOXY SILANE AND AN ACIDIFIER” (Henkel AG & Co. KGaA, priority 2019, published 2022).

Details: 25° C.

Row | SMILES | solubility in water | solubility in water (in words)
1 | Nc1cc(S(=O)(=O)[O-])cc2cc(S(=O)(=O)[O-])c(N=Nc3ccccc3)c(O)c12.[Na+].[Na+] [Acid Red 33, diantrium salt of 5-amino-4-hydroxy-3-(phenylazo)-naphthalene-2,7-disulphonate] | 2500 µg/mL | –
2 | O=C([O-])c1c(Cl)c(Cl)c(Cl)c(Cl)c1-c1c2c(Br)cc(=O)c(Br)c-2oc2c(Br)c(O)cc(Br)c12.O=C([O-])c1c(Cl)c(Cl)c(Cl)c(Cl)c1-c1c2c(Br)cc(=O)c(Br)c-2oc2c(Br)c(O)cc(Br)c12.[Na+].[Na+] [Acid Red 92, disodium salt of 3,4,5,6-tetrachloro-2-(1,4,5,8-tetrabromo-6-hydroxy-3-oxoxanthen-9-yl)benzoic acid] | greater than 10 g/L | –
3 | O=C([O-])C1=NN(c2ccc(S(=O)(=O)[O-])cc2)C(=O)C1N=Nc1ccc(S(=O)(=O)[O-])cc1.[Na+].[Na+].[Na+] (stereo not shown) [Acid Yellow 23, trisodium salt of 4,5-dihydro-5-oxo-1-(4-sulfophenyl)-4-((4-sulfophenyl)azo)-1H-pyrazole-3-carboxylic acid] | – | highly soluble
4 | O=S(=O)([O-])c1ccc(N=Nc2c(O)ccc3ccccc23)cc1.[Na+] [Acid Orange 7, sodium salt of 4-[(2-hydroxy-1-naphthyl)azo]benzene sulphonate] | more than 7 g/L | –
